Among the data in patent US20250282768A1 (Janssen Pharmaceutica NV, priority 2022, published 2025) are IC50 values, retold here.

The structures appear in SMILES notation.

The test deals with p-IKKa levels in L363 (NIK translocated multiple myeloma) cells. The test can be described thus: Assay 2: Effect of compounds on p-IKKa levels in L363 (NIK translocated multiple myeloma) cells. In kind it is cell-based. To be noted: Homo sapiens, L-363, 6 h, read-out: Assay 2 IC50 (nM), p-IKKa (Ser 176/180) in BAFF stimulated L363 cells with MG132, 6 h; average if tested more than once. In outline:
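Read-out is p-IKKa Ser176/180 by AlphaLISA SureFire in lysates. Cells were BAFF-primed (250 ng/ml) overnight or left unstimulated, then exposed 6 h at 37 °C to compound with MG132 (10 μM), 0.3% DMSO. IC50 from sigmoidal curve fit, normalized between stimulated and unstimulated controls.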
On to `Cc1nn(C)c(C)c1Nc1nccc(-c2cccc(-c3cc([C@]4(O)CCN(C)C4=O)on3)n2)n1` [Example 289, (R)-3-Hydroxy-1-methyl-3-(3-(6-(2-((1,3,5-trimethyl-1H-pyrazol-4-yl)amino)pyrimidin-4-yl)pyridin-2-yl)isoxazol-5-yl)pyrrolidin-2-one], for which the IC50 was above 500 nM.

Turning to `CN1CC[C@@](O)(c2cc(-c3cccc(-c4ccnc(Nc5ccncc5C#N)n4)n3)no2)C1=O` [Example 290, (R)-4-((4-(6-(5-(3-Hydroxy-1-methyl-2-oxopyrrolidin-3-yl)isoxazol-3-yl)pyridin-2-yl)pyrimidin-2-yl)amino)nicotinonitrile], the IC50 lay in the range of 50 to 500 nM.

Take `Cc1ncc(Nc2nccc(-c3cccc(-c4cc([C@]5(O)CCN(C)C5=O)on4)n3)n2)cn1` [Example 291, (R)-3-Hydroxy-1-methyl-3-(3-(6-(2-((2-methylpyrimidin-5-yl)amino)pyrimidin-4-yl)pyridin-2-yl)isoxazol-5-yl)pyrrolidin-2-one]: the IC50 was in the range of 50 to 500 nM.

As for `CN1CC[C@@](O)(c2cc(-c3cccc(-c4ccnc(Nc5cncc(C#N)c5)n4)n3)no2)C1=O` [Example 292, (R)-5-((4-(6-(5-(3-Hydroxy-1-methyl-2-oxopyrrolidin-3-yl)isoxazol-3-yl)pyridin-2-yl)pyrimidin-2-yl)amino)nicotinonitrile], the IC50 is below 50 nM.

On to `Cc1cc(Nc2nccc(-c3cccc(-c4cc([C@]5(O)CCN(C)C5=O)on4)n3)n2)c(F)cn1` [Example 293, (R)-3-(3-(6-(2-((5-Fluoro-2-methylpyridin-4-yl)amino)pyrimidin-4-yl)pyridin-2-yl)isoxazol-5-yl)-3-hydroxy-1-methylpyrrolidin-2-one], for which the IC50 is below 50 nM.

With `CN1CC[C@@](O)(c2cc(-c3cccc(-c4ccnc(Nc5ccnc(C(F)F)c5)n4)n3)no2)C1=O` [Example 294, (R)-3-(3-(6-(2-((2-(Difluoromethyl)pyridin-4-yl)amino)pyrimidin-4-yl)pyridin-2-yl)isoxazol-5-yl)-3-hydroxy-1-methylpyrrolidin-2-one], the IC50 is below 50 nM.

Regarding `CN1CC[C@@](O)(c2cc(-c3cccc(-c4ccnc(Nc5cc(F)n(C)n5)n4)n3)no2)C1=O` [Example 295, (R)-3-(3-(6-(2-((5-Fluoro-1-methyl-1H-pyrazol-3-yl)amino)pyrimidin-4-yl)pyridin-2-yl)isoxazol-5-yl)-3-hydroxy-1-methylpyrrolidin-2-one], the IC50 is below 50 nM.

As to `CN1CC[C@@](O)(c2cc(-c3cccc(-c4ccnc(Nc5cn(C)nc5Cl)n4)n3)no2)C1=O` [Example 296, (R)-3-(3-(6-(2-((3-Chloro-1-methyl-1H-pyrazol-4-yl)amino)pyrimidin-4-yl)pyridin-2-yl)isoxazol-5-yl)-3-hydroxy-1-methylpyrrolidin-2-one], the IC50 is below 50 nM.

For the compound `CN1CC[C@@](O)(c2cc(-c3cccc(-c4ccnc(Nc5cnn(C)c5Cl)n4)n3)no2)C1=O` [Example 297, (R)-3-(3-(6-(2-((5-Chloro-1-methyl-1H-pyrazol-4-yl)amino)pyrimidin-4-yl)pyridin-2-yl)isoxazol-5-yl)-3-hydroxy-1-methylpyrrolidin-2-one], the IC50 is below 50 nM.

Consider `Cc1nccc(Nc2nccc(-c3cccc(-c4cc([C@]5(O)CCN(C)C5=O)on4)n3)n2)n1` [Example 298, (R)-3-Hydroxy-1-methyl-3-(3-(6-(2-((2-methylpyrimidin-4-yl)amino)pyrimidin-4-yl)pyridin-2-yl)isoxazol-5-yl)pyrrolidin-2-one], for which the IC50 was below 50 nM.

As for `CN1CC[C@@](O)(c2cc(-c3cccc(-c4ccnc(Nc5cnn6ccncc56)n4)n3)no2)C1=O` [Example 299, (R)-3-Hydroxy-1-methyl-3-(3-(6-(2-(pyrazolo[1,5-a]pyrazin-3-ylamino)pyrimidin-4-yl)pyridin-2-yl)isoxazol-5-yl)pyrrolidin-2-one], the IC50 was below 50 nM.

For the compound `CN1CC[C@@](O)(c2cc(-c3cccc(-c4ccnc(Nc5cc6n(n5)CC5(CC5)C6)n4)n3)no2)C1=O` [Example 300, (R)-3-(3-(6-(2-((4′H,6′H-Spiro[cyclopropane-1,5′-pyrrolo[1,2-b]pyrazol]-2′-yl)amino)pyrimidin-4-yl)pyridin-2-yl)isoxazol-5-yl)-3-hydroxy-1-methylpyrrolidin-2-one], the IC50 was below 50 nM.

As for `[2H]c1cc(-c2cccc(-n3cc([C@]4(O)CCN(C)C4=O)nn3)n2)nc(Nc2ccn(CC)n2)n1` [Example 301, (R)-3-(1-(6-(2-((1-Ethyl-1H-pyrazol-3-yl)amino)pyrimidin-4-yl-6-d)pyridin-2-yl)-1H-1,2,3-triazol-4-yl)-3-hydroxy-1-methylpyrrolidin-2-one], the IC50 was below 50 nM.

Regarding `CN1CC[C@@](O)(c2cc(-c3cccc(-c4ccnc(Nc5cnn6c5COCC6)n4)n3)no2)C1=O` [Example 302, (R)-3-(3-(6-(2-((6,7-Dihydro-4H-pyrazolo[5,1-c][1,4]oxazin-3-yl)amino)pyrimidin-4-yl)pyridin-2-yl)isoxazol-5-yl)-3-hydroxy-1-methylpyrrolidin-2-one], the IC50 is below 50 nM.

For `CN1CC[C@@](O)(c2cc(-c3cccc(-c4ccnc(Nc5cnc(CO)cn5)n4)n3)no2)C1=O` [Example 303, (R)-3-Hydroxy-3-(3-(6-(2-((5-(hydroxymethyl)pyrazin-2-yl)amino)pyrimidin-4-yl)pyridin-2-yl)isoxazol-5-yl)-1-methylpyrrolidin-2-one], the IC50 is 50 to 500 nM.

Regarding `CN1CC[C@@](O)(c2cc(-c3cccc(-c4ccnc(Nc5nnc(C6CC6)o5)n4)n3)no2)C1=O` [Example 304, (R)-3-(3-(6-(2-((5-Cyclopropyl-1,3,4-oxadiazol-2-yl)amino)pyrimidin-4-yl)pyridin-2-yl)isoxazol-5-yl)-3-hydroxy-1-methylpyrrolidin-2-one], the IC50 fell in the range of 50 to 500 nM.

`CN1CC[C@@](O)(c2cc(-c3cccc(-c4ccnc(Nc5ncn(CC(F)(F)F)n5)n4)n3)no2)C1=O` [Example 305, (R)-3-Hydroxy-1-methyl-3-(3-(6-(2-((1-(2,2,2-trifluoroethyl)-1H-1,2,4-triazol-3-yl)amino)pyrimidin-4-yl)pyridin-2-yl)isoxazol-5-yl)pyrrolidin-2-one]: the IC50 fell in the range of 50 to 500 nM.

On to `CN(C)CCn1nccc1Nc1nccc(-c2cccc(-c3cc([C@]4(O)CCN(C)C4=O)on3)n2)n1` [Example 306, (R)-3-(3-(6-(2-((1-(2-(Dimethylamino)ethyl)-1H-pyrazol-5-yl)amino)pyrimidin-4-yl)pyridin-2-yl)isoxazol-5-yl)-3-hydroxy-1-methylpyrrolidin-2-one], for which the IC50 is above 500 nM.

For the compound `CN1CC[C@@](O)(c2cc(-c3cccc(-c4ccnc(Nc5ccc(-c6nncn6C)cn5)n4)n3)no2)C1=O` [Example 308, (R)-3-Hydroxy-1-methyl-3-(3-(6-(2-((5-(4-methyl-4H-1,2,4-triazol-3-yl)pyridin-2-yl)amino)pyrimidin-4-yl)pyridin-2-yl)isoxazol-5-yl)pyrrolidin-2-one], the IC50 fell in the range of 50 to 500 nM.

`Cc1nc(-c2ccc(Nc3nccc(-c4cccc(-c5cc([C@]6(O)CCN(C)C6=O)on5)n4)n3)nc2)n(C)n1` [Example 309, (R)-3-(3-(6-(2-((5-(1,3-Dimethyl-1H-1,2,4-triazol-5-yl)pyridin-2-yl)amino)pyrimidin-4-yl)pyridin-2-yl)isoxazol-5-yl)-3-hydroxy-1-methylpyrrolidin-2-one]: the IC50 is above 500 nM.
